This is an account of results in patent publication US20090298786A1, “METHODS OF TREATING VIRAL INFECTIONS WITH ANTHRACYCLINE ANTIBIOTICS” (priority 2007, published 2009).

Molecules are shown by their SMILES. Where two headings read alike, the source gives them in different places.

By EC50 is commonly meant the concentration giving half of the maximal effect. The term IC50 denotes the concentration that gives 50% inhibition. In general, CC50 refers to the concentration that lowers cell viability or growth by half.

Data set [1] has as its system subgenomic HCV genotype 1 (con 1) replicon. The data set can be described thus: Antiviral activity, subgenomic HCV replicon luciferase test in Huh-7 cells. The format is cell-based, hepatitis C virus. The method, then:
Studies on inhibition of HCV replication, using human liver cancer cell line (Huh7) carrying a subgenomic HCV replicon of genotype 1 (con1) with a reporter/selection fusion protein luc-ubi-neo, were also carried out.
In order to examine antiviral activity and to determine therapeutic index of exemplary anthracycline antibiotics, subgenomic replicon of hepatitis C virus was used, which is a modified genome of HCV lacking structural genes. The replicon was a non-infective form of the virus, and therefore is safe to work with and makes it easier for high-throughput screening of potential inhibitors of its replication.
Additional simplification was the use of reporter protein—luciferase, whose activity (i.e., luminescence generated by it after addition of substrate) was proportional to the amount of the protein expressed, which allowed determination of HCV RNA replication level and its inhibition by virus replication inhibitors.
The human hepatoma cell line Huh-7 and the plasmid pFK-luc-ubi-neo/NS3-3′/Con1/5.1 carrying the subgenomic HCV genotype 1 (con 1) replicon with the luc-ubi-neo reporter/selective fusion protein (Vrolijk J. M. et al., J. Virol. Methods 110: 201-209, 2003), used in the experiments, were provided by Dr. Ralf Bartenschlager (Department of Molecular Virology, University of Heidelberg, Heidelberg). Huh-7 clones carrying persistently-replicating subgenomic HCV replicons were obtained using the following modification of the protocol described by Lohman V. et al. (J. Virol. 75:1437-1449, 2001).
(§1) Huh-7 cells were grown in minimal essential medium (Dulbecco's Modified Minimal Essential Medium, DMEM; Invitrogen) with high glucose concentration (4.5 g/L) supplemented with 2 mM L-glutamine and 1 μM non-essential amino acids, such as: glycine, L-alanine, L-asparagine, L-aspartic acid, L-glutamic acid, L-proline and L-serine, and also with 100 U/mL penicilin, 100 μg/mL streptomycin, and 10% fetal bovine serum (FBS, Sigma). In cultures of cells bearing the subgenomic HCV replicon 250 μg/mL of aminoglycoside antibiotics G418 (Geneticin; Invitrogen) was added to the medium. Cells were grown at 37° C. (5% CO2) and were passaged twice per week, diluted 7 to 10 times, according to the protocol described in Vrolijk J. M. et al., J. Virol. Methods 110:201-209, 2003.
(§2) The Huh-7 cells carrying replicons were cultivated with the following concentrations of anthracycline antibiotics: 5 to 200 nM for 4 days to determine their influence on HCV RNA replication and 5 to 5000 nM for 3 days to determine cytotoxicity. The medium with 1% DMSO was used as a control.
Conditions of the antiviral activity test of antracycline antibiotics were based on the protocol described by Paeshuyse J. et al. (Biochem. Biophys. Res. Commun. 348: 139-144, 2006). A logarithmic culture of HCV replicon-carrying cells was diluted in complete DMEM medium supplemented with 250 μg/ml G418 to the concentration of 5-7×10^3 cells per mL and aliquoted into 96-well white microtitration plate with optical bottom (Nunc) (100 μL per well). After 24 h at 37° C. the medium was removed and dilution of inhibitors in the range of 5 to 200 nM was added in 100 μL of fresh DMEM medium without G418. Huh-7 cells with 1% DMSO were used as a control. After 4 days at 37° C., the medium was removed and 40 μL of mixture of Glo Lysis buffer and Bright-Glo luciferase assay system (Promega) was added to each well. After 2 mins of incubation luminescence was measured with a Synergy HTi (Biotek) device. The experiment was repeated at least three times with three repetitions for each inhibitor concentration.
A general note: In antiviral work, replicon cells carry a viral genome segment that copies itself.

Data set [2] has as its target T1, HCV helicase (helicase domain of NS3 protein) (UniProt P27958).
T1 construct: The helicase domain of NS3 protein was expressed in a baculovirus system in HF insect cell line; fused on or other part: Histidine tag, inferred from the Talon cobalt column purification ('histidine repetitions')
As to the kind of experiment: Fluorometric (FRET) antihelicase activity assay. It is filed as biochemical, hepatitis C virus (HCV). The conditions noted are these: concentration inhibiting 50% of helicase activity; 10 nM enzyme pre-incubated 15 min with derivative, unwinding at 30° C. for 60 min; read-out: IC50. The text has this: A reaction takes place on a 96- or 384-well microtitration plate and a course of the reaction is observed in real time.
The helicase domain of NS3 protein was expressed in a baculovirus system in HF insect cell line.
In this assay, FAM fluorescence is quenched by fluorescence energy transfer (FRET) to the BHQ molecule, while unwinding of double-stranded DNA structure leads to decrease of FRET phenomenon and increase of FAM fluorescence signal. The assay allows for examining a large number of samples, i.e., different helicase inhibitors at various concentrations and with many repetitions, in standardized conditions. The reaction is conducted in a microtitration plate. The reaction process is observed in real time.
The enzyme (10 nM) was pre-incubated with the tested derivatives dissolved in DMSO (0.005 to 20 μM concentration) without ATP for 15 min at room temperature. The reaction of DNA unwinding was started by addition of ATP and was carried out at 30° C. for 60 min in a Synergy HTi (Biotek) fluorometer. […] Fluorescence was measured every 2 mins.
The enzyme activity was calculated as the initial reaction velocity from the linear part of reaction curve (fluorescence growth as a function of time) using a linear regression method. Inhibition was calculated as comparison of activity of the helicase incubated with inhibitor to activity of the helicase incubated without inhibitor, but with a proper concentration of DMSO, expressed in percent.

Data set [3] concerns the target helicase. The conditions noted are these: Borowski P. et al., Antiviral Res. 55, 397-412, 2002; read-out: IC50 (antihelicase activity); cited from earlier work.
Data set [4] relates to Huh-7 cells carrying replicons. The data set can be described thus: Cytotoxicity (MTT) in HCV replicon-carrying Huh-7 cells. The conditions noted are these: Huh-7 replicon cells, 3 days, MTT, cell growth inhibited by 50%. The protocol: as §1, §2
(§3) When determining cytotoxicity, as in the antiviral test, logarithmic culture of HCV replicon-carrying cells was diluted in complete DMEM medium supplemented with 250 μg/mL G418 to the concentration of 5−7×10^3 cells per mL and aliquoted into 96-well mictotitration cell culture plate (100 μL per well). After 24 h at 37° C. medium was removed and inhibitors were added at concentrations of 5 to 5000 nM in 100 μL of fresh DMEM medium without G418. After 3 days at 37° C., the medium was removed and 100 μL of fresh DMEM medium with 0.5 mg/mL of MTT (tetrazolium bromide, Sigma) was added to each well. After 3 to 4 hours of incubation at 37° C., the medium with MTT was removed and 100 μL of 0.04 N HCl solution in absolute isopropanol was added to solubilize the precipitated dye. Dye absorbance was measured at 570 nm, while absorbance of the background was measured at 650 nm using Synergy HTi (Biotek). The experiment was repeated at least 3 times with 3 repetitions for each inhibitor concentration.

Experiment in data set [5]: as above
The conditions noted are these: human, Huh-7 cells carrying subgenomic HCV replicon. The method, then: as §1, §2, §3

[6] abbreviates: Huh-7 replicon cells, 4 days, luminescence reduced by 50%, read-out: EC50.
[7] abbreviates: Hepatitis C virus, Huh-7, 96 h, Huh-7 replicon cells, 4 days, luminescence reduced by 50%.

T1 sequence (P27958 1027-1657): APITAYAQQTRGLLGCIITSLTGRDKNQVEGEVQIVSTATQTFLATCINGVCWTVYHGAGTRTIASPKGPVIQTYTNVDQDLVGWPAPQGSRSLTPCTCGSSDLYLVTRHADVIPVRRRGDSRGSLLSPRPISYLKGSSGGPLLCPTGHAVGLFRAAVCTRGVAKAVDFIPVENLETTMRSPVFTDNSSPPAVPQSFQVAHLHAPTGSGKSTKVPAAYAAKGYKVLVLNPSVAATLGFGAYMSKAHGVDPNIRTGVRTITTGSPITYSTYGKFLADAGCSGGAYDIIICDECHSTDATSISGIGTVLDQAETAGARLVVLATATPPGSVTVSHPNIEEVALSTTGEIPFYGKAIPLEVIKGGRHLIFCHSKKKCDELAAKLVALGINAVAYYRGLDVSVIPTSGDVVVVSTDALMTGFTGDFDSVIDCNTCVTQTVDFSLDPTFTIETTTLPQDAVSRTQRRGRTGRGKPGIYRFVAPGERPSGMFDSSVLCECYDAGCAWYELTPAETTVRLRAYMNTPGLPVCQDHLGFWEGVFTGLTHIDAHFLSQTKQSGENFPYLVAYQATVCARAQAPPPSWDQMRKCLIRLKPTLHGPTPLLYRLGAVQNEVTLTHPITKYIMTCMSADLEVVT

For `COc1cccc2c1C(=O)c1c(O)c3c(c(O)c1C2=O)C[C@@](O)(C(C)=O)C[C@@H]3O[C@H]1C[C@H](N)[C@@H](O)[C@H](C)O1` [Epidaunorubicin, reference compound], in data set [1] (setting [6]), the EC50 amounted to 31.2 nM. For the same molecule, the IC50 in data set [2] was 3730 nM.
As to `COc1cccc2c1C(=O)c1c(O)c3c(c(O)c1C2=O)C[C@@](O)(C(C)=O)C[C@@H]3O[C@H]1C[C@H](N)[C@H](O)[C@H](C)O1` [Daunorubicin, reference compound], the IC50 in data set [3] is 57000 nM; in data set [2], 6050 nM. Besides, in data set [1] (setting [7]), the EC50 came out at 31.2 nM.
Consider `COc1cccc2c1C(=O)c1c(O)c3c(c(O)c1C2=O)CC(O)(C(=O)CO)CC3OC1CC(N=C(C)N2CCOCC2)C(O)C(C)O1` (stereo not drawn) [Derivative 125], for which the concentration giving a half-maximal response (EC50) in data set [1] (setting [6]) amounted to 114 nM. For the same molecule, the IC50 in data set [2] amounted to 290 nM. Besides, the half-maximal cytotoxic concentration (CC50) in data set [4] came out at 909 nM.
As for `COc1cccc2c1C(=O)c1c(O)c3c(c(O)c1C2=O)CC(O)(C(=O)CO)CC3OC1CC(N=C(C)N2CCc3ccccc32)C(O)C(C)O1` (stereo not drawn) [Derivative 133], the half-maximal effective concentration (EC50) in data set [1] (setting [6]) was found to be 138 nM. Besides, the IC50 in data set [2] stood at 380 nM. For the same molecule, in data set [4], the CC50 is 1570 nM.
For `O=C1c2c(O)ccc(O)c2C(=O)c2c(NCCNCCO)ccc(NCCNCCO)c21` [mitoxantrone], the IC50 in data set [3] is 6700 nM.
For `COc1cccc2c1C(=O)c1c(O)c3c(c(O)c1C2=O)C[C@@](O)(C(=O)CO)C[C@@H]3O[C@H]1C[C@H](N)[C@@H](O)[C@H](C)O1` [Epidoxorubicin, reference compound], the 50% inhibitory concentration (IC50) in data set [3] is 750 nM. In data set [5], the 50% cytotoxic concentration (CC50) at 3 days stood at 675 nM.
For the molecule `COc1cccc2c1C(=O)c1c(O)c3c(c(O)c1C2=O)CC(O)(C(C)=O)CC3OC1CC(N=C(C)N2CCN(C)CC2)C(O)C(C)O1` (stereo not drawn) [Derivative 94], the concentration for a half-maximal effect (EC50) in data set [1] (setting [7]) is 56.9 nM. Besides, the IC50 in data set [2] worked out at 80 ± 20 nM. In addition, the 50% cytotoxic concentration (CC50) at 3 days in data set [5] was 1090 nM.
With `COc1cccc2c1C(=O)c1c(O)c3c(c(O)c1C2=O)CC(O)(C(C)=O)CC3OC1CC(N=CN2CCCCCC2)C(O)C(C)O1.Cl` (stereo not drawn) [Derivative 75], the “activity (EC50) fold higher than that of epidoxorubicin, doxorubicin, epidaunorubicin, or daunorubicin” value in data set [1] (HCV replicon) is on record as 4 fold. In data set [1] (setting [6]), the EC50 turned out to be 8.4 nM. Besides, the IC50 in data set [2] worked out at 2330 nM. Besides, in data set [4], the CC50 worked out at 47.9 nM.
Take `COc1cccc2c1C(=O)c1c(O)c3c(c(O)c1C2=O)C[C@@](O)(C(=O)CO)C[C@@H]3O[C@H]1C[C@H](N)[C@H](O)[C@H](C)O1` [Doxorubicin, reference compound]: the IC50 in data set [3] is 5000 nM. For the same molecule, the 50% effective concentration (EC50) in data set [1] (setting [7]) stood at 31.2 nM; in data set [1] (Huh-7 replicon cells, 4 days, luminescence reduced by 50%) it was 42.9 nM. Further, in data set [5], the CC50 at 3 days was determined as 332 nM.
Consider `COc1cccc2c1C(=O)c1c(O)c3c(c(O)c1C2=O)CC(O)(C(=O)CO)CC3OC1CC(N=C(C)N2CCOCC2)C(O)C(C)O1` (stereo not drawn) [Derivative 54], for which the EC50 in data set [1] (setting [6]) was 129 nM. For the same molecule, the IC50 in data set [2] worked out at 510 nM. In data set [4], the CC50 was 4280 nM.
As for `COC(=O)[C@@H]1c2cc3c(c(O)c2[C@@H](O[C@@H]2O[C@@H](C)[C@H](OC)[C@@](C)(OC)[C@H]2OC)C[C@]1(C)O)C(=O)c1c(O)cc2c(c1C3=O)O[C@@H]1O[C@@]2(C)[C@H](O)[C@@H](N(C)C)[C@@H]1O` [nogalamycin], the 50% inhibitory concentration (IC50) in data set [3] is 100 nM.
With `NC(=O)c1ncn([C@@H]2O[C@H](CO)[C@@H](O)[C@H]2O)n1` [ribavirin, reference compound], the EC50 in data set [1] (Hepatitis C virus, Huh-7, ribavirin, comparison drug) amounted to 120000 nM.
